Measured values reported in patent publication US20250257383A1, “MATERIAL DETECTION METHOD USING AMINOACYLASE” (JOSHO GAKUEN EDUCATIONAL FOUNDATION, priority 2021, published 2025).

Experiments:
[1] = tested on: amidohydrolase 4ewt (amino acid sequence of SEQ ID NO: 1, SACOL0085); experiment: Enzymatic detection of hippuric acid or methylhippuric acid by hydrolysis with amidohydrolase 4ewt and glycine oxidase/Trinder absorbance measurement (Example); type: biochemical, Staphylococcus aureus COL; conditions: amidohydrolase 4ewt 30 units/mL; specimens 5, 10, 20 mM in saline; 37° C.; Tris buffer pH 8.5; absorbance 545 nm; FIG. 3
Description: A first reagent R1 was prepared which contained 30 units/mL of amidohydrolase 4ewt, 7.5 units/mL of peroxidase, 4.5 mM of N-ethyl-N-(2-hydroxy-3-sulfopropyl)-3-methoxyaniline (TOOS), and 50 mM of Tris buffer (pH 8.5), and a second reagent R2 was prepared which contained 5 units/mL of glycine oxidase, 1.2 mM of 4-aminoantipyrine, and 100 mM of Tris buffer (pH 8.5).
Specimen Groups 1 to 4 and Specimen 0 were prepared as measurement samples, i.e., examination specimens.
Each of the examination specimens was diluted to five times by means of an automatic analyzer to prepare a diluted specimen solution. A volume of 60 μL of the first reagent R1 was added and mixed with 2 μL of the diluted specimen solution, and the reaction was allowed to proceed well at 37° C. After that, 20 μL of the second reagent R2 was further added and mixed with the reaction mixture, and the reaction was allowed to proceed well at 37° C. The absorbance of the resulting specimen solution was measured using an automatic analyzer, manufactured by JEOL Ltd. under the trade name JCA-BM 6050, at a primary wavelength of 545 nm and a secondary wavelength of 805 nm. The concentration of hippuric acid or methylhippuric acid in each examination specimen was calculated from the measured absorbance and plotted on a graph.
In FIG. 3, the abscissa represents known concentrations (unit: mM) of hippuric acid or methylhippuric acid in the examination specimens and the ordinate represents measured concentrations (unit: mM) obtained by the automatic analyzer. In FIG. 3, the diamond symbols represent the specimens of Specimen Group 1, namely the examination specimens containing hippuric acid, the square symbols represent the specimens of Specimen Group 2, namely the examination specimens containing 2-methylhippuric acid, the triangle symbols represent the specimens of Specimen Group 3, namely the examination specimens containing 3-methylhippuric acid, and the x symbols represent the specimens of Specimen Group 4, namely the examination specimens containing 4-methylhippuric acid. The examination specimen for which the known concentration is 0 mM is Specimen 0, which is represented by using all of the symbols representing Specimen Groups 1 to 4 since, as previously stated, Specimen 0 was used as a negative control in measurement for the Specimen Groups 1 to 4.
The amidohydrolase 4ewt used in Example was produced using a gene chemically synthesized by converting the amino acid sequence of SEQ ID NO: 1 to a base sequence. […]

aminoacylase PH1043 = experiment: Same detection method using aminoacylase PH1043 (Comparative Example 1); type: biochemical, Pyrococcus horikoshii; conditions: aminoacylase PH1043 instead of amidohydrolase; specimens 5, 10, 20 mM in saline; 37° C.; FIG. 4
Description: (§1) The absorbance of each specimen was measured in the same manner as in Example, except for using hitherto known aminoacylase PH1043 instead of the amidohydrolase used in Example. The concentration of hippuric acid or methylhippuric acid in each examination specimen was calculated from the measured absorbance and plotted on a graph. The abscissa, ordinate, and symbols in FIG. 4 are the same as those in FIG. 3.
The aminoacylase PH1043 used in Comparative Example 1 is one produced by Nipro Corporation. The aminoacylase PH1043 will not be described in detail as it is a hitherto known enzyme described, for example, in the following literatures: Imai Satsuki, Nagoshi Kentaro, Shinki Shota, Baba Toshiaki, Nishiya Yoshiaki, “Functional Modification of Pyrococcus horikoshii-Derived Hippurate Hydrolase”, The Society for Biotechnology, Japan (2018) (Reference Literature 7); Imai Satsuki, Nagoshi Kentaro, Shinki Shota, Baba Toshiaki, Nishiya Yoshiaki, “Development of Method and Enzyme for Enzymatic Assay of Hippuric Acid”, The Society of Analytical Bio-Science (2019) (Reference Literature 8); Imai Satsuki, Nagoshi Kentaro, Shinki Shota, Baba Toshiaki, Nishiya Yoshiaki, “Functional Improvement of Hippurate Hydrolase”, Japan Society for Bioscience, Biotechnology and Agrochemistry (2019) (Reference Literature 9); Imai Satsuki, Nagoshi Kentaro, Shinki Shota, Baba Toshiaki, Nishiya Yoshiaki, “Functional Improvement of Hippurate Hydrolase toward Practical Use”, The Molecular Biology Society of Japan (2019) (Reference Literature 10); Imai Satsuki, Nagoshi Kentaro, Shinki Shota, Baba Toshiaki, Nishiya Yoshiaki, “Development of Enzymatic Assay Method for Determining Total Exposure to Toluene and Xylene (1)”, The Society of Analytical Bio-Science (2020) (Reference Literature 11); and Suginaka Muneyuki, Torii Gento, Imai Satsuki, Baba Toshiaki, Nishiya Yoshiaki, “Development of Enzymatic Assay Method for Determining Total Exposure to Toluene and Xylene (2)”, The Molecular Biology Society of Japan (2020) (Reference Literature 12). The contents of Reference Literatures 7 to 12 are incorporated herein by reference.

[2] = tested on: hippurate hydrolase (EC 3.5.1.32); experiment: Same detection method using hippurate hydrolase (Comparative Example 2); type: biochemical; conditions: hippurate hydrolase instead of amidohydrolase; specimens 5, 10, 20 mM in saline; 37° C.; FIG. 5
Description: as §1, with “using a” for “using”, “hippurate hydrolase (EC 3.5.1.32, manufactured by Nipro Corporation)” for “aminoacylase PH1043”, “5” for “4”, “3 or 4.” for “3.”

Row | SMILES | agreement of measured concentration with known concentration in the specimen (hydrolysis by the enzyme) [1] | agreement of measured concentration with actual concentration in the specimen (hydrolysis by the enzyme) (aminoacylase PH1043) | agreement of measured concentration with actual concentration in the specimen (hydrolysis by the enzyme) [2]
1 | Cc1cccc(C(=O)NCC(=O)O)c1 [3-methylhippuric acid] | agree well with each other | agreed well with the actual concentrations | agreed well with the actual concentrations
2 | O=C(O)CNC(=O)c1ccccc1 [hippuric acid, benzoylaminoacetic acid] | agree well with each other | agreed well with the actual concentrations | agreed well with the actual concentrations
3 | Cc1ccccc1C(=O)NCC(=O)O [2-methylhippuric acid, (2-methylbenzoylamino)acetic acid] | agree well with each other | not much different from the measured concentration obtained for the negative control | not much different from the measured concentration obtained for the negative control
4 | Cc1ccc(C(=O)NCC(=O)O)cc1 [4-methylhippuric acid] | agree well with each other | agreed well with the actual concentrations | agreed well with the actual concentrations
